# Source: patent US20260199365A1, “BIS-SULFONAMIDE SHIP1 ACTIVATORS” (The Research Foundation for the State University of New York, priority 2022, published 2026)
# Molecular target: T1, recombinant human truncated SHIP1 (tSHIP1) (Homo sapiens, UniProt Q92835)
# T1 construct: tSHIP1 (SHIP1, residues 397-864) was amplified from pET24TEV-tSHIP1; His tag; made in house; host or cells: E. coli BL21
# T1 sequence (Q92835 397-864): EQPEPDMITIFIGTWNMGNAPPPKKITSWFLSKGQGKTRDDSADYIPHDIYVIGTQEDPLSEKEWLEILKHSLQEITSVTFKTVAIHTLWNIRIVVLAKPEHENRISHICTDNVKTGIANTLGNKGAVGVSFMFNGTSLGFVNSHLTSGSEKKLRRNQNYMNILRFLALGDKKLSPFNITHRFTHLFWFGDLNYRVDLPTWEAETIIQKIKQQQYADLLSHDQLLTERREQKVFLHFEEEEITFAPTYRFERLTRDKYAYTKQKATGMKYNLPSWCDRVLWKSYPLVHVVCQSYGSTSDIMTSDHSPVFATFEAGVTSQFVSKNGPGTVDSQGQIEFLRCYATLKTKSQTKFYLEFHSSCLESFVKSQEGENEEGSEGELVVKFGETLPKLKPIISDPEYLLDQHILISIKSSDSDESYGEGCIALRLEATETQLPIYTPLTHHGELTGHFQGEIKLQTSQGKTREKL
# Assay: Malachite Green Phosphatase Release Assay (SHIP1 phosphatase activity)
# Format: biochemical
# Details: for Phosphatase activity in the Malachite Green Assay, analog concentration 125 μM: 125 μM analog; for Phosphatase activity in the Malachite Green Assay, analog concentration 125 μM / Phosphatase activity in the Malachite Green Assay, analog concentration 250 μM / Phosphatase activity in the Malachite Green Assay, analog concentration 500 μM: 100 μM PI(3,4,5)P3-diC8 substrate, normalized to vehicle control (DMSO) = 100%; for Phosphatase activity in the Malachite Green Assay, analog concentration 250 μM: 250 μM analog; for Phosphatase activity in the Malachite Green Assay, analog concentration 500 μM: 500 μM analog, >100% activation, <100% inhibition; for SHIP1 activator activity in the malachite green assay: discussion of Table 4 (125-500 μM)
# Procedure: ^aPhosphatase activity for SHIP1 and SHIP2 enzyme as determined in the malachite green assay. Results were normalized to the phosphatase activity level from vehicle control (DMSO) used as 100% activity. Values >100% are attributed to activation, while values <100% show inhibition of the enzyme compared to the control. The assay was performed at the indicated concentration of the small molecule with 100 μM PI(3,4,5)P3-diC8 as the substrate. ^bnd=not determined, compound 23 was insoluble.
# Cloning and expression of tSHIP1 of truncated human SHIP1 protein (tSHIP1) from human whole blood mRNA have been previously described (see Brooks R, Iyer, S., Akada, H., Neelam, S., Russo, C. M., Chisholm, J. D., and Kerr W. G. Coordinate Expansion of Murine Hematopoietic and Mesenchymal Stem Cell Compartments by SHIPi Stem Cells 2015; 33:848). Briefly, tSHIP1 (SHIP1, residues 397-864) was amplified from pET24TEV-tSHIP1. Plasmids were extracted with Midi Prep (Qiagen) and sequences were verified by sequencing of the entire expression regions. The plasmids were then transformed into E. coli BL21 (New England Biolabs). Fresh colonies were amplified in 1 L LB at 37° C., shaking at 250 rpm until OD600 nm reached 0.6. Protein expression was induced with […] IPTG and incubation was continued at 16° C., shaking at 250 rpm for 16 h. Following centrifugation, bacteria pellets were stored overnight at −20° C. Protein was extracted form bacterial cell pellet using BugBuster HT (Millipore), according to manufacturer's recommendations. The His-tagged protein was purified by FPLC using HisTrapHP 5 ml column (Cytiva Life Sciences) at a 5 ml/min flow rate and 10 mM-1M imidazole gradient in Buffer A (20 mM Tris pH 8.0, 300 mM NaCl, 10 mM imidazole, 5 mM β-mercaptoethanol). Fractions containing active protein by Malachite Green Phosphatase Release Assay (Echelon, see below) were pooled, concentrated and buffer exchanged to reduce imidazole concentration by centrifugation using Pierce Protein Concentrators 30KMWCO PES, (ThermoFisher Scientific). Protein was aliquoted and stored at −80° C. in a mixture of Buffer A (without β-ME) and 50% glycerol.
# Malachite Green Phosphatase Release Assays: Malachite Green Phosphatase Release Assays (Echelon Biosciences) were performed with recombinant human truncated SHIP1 (tSHIP1) (Brooks, 2015) and SHIP2 (Echelon Biosciences). Briefly, serial dilutions of the compounds dissolved in DMSO were added to the recombinant enzymes diluted in reaction buffer Rx (50 mM Hepes pH 7.4, 150 mM NaCl, 1 mM MgCl2, 0.25 mM EDTA) in triplicate reactions in 96-well plates. Reactions were incubated for 2 min at room temperature. […] of 1 mM Phosphatidylinositol 3,4,5-trisphosphate diC8 (PI(3,4,5)P3diC8) (Echelon Biosciences) was added to each reaction to a final concentration of 100 μM in a final volume of […]. Following 20 min incubation at 37° C., 100 μL of Malachite Green Solution (Echelon Biosciences) was added to each well and plates were incubated at room temperature in the dark for 15 min. Plates were then read at 620 nm on a plate reader (Synergy 2, BioTek).
"Phosphatase activity in the Malachite Green Assay, analog concentration 125 μM","Phosphatase activity in the Malachite Green Assay, analog concentration 250 μM","Phosphatase activity in the Malachite Green Assay, analog concentration 500 μM",SHIP1 activator activity in the malachite green assay,SMILES
109%,107%,113%,reduced effect on SHIP activation,Cc1sc(S(=O)(=O)N2CCSCC2)cc1N [Compound K381]
101%,93%,109%,,"CCN(CC)S(=O)(=O)c1cc(NC(=O)CNS(=O)(=O)c2ccc(F)cc2)c(C)s1 [Compound K383, N-[5-(Diethylsulfamoyl)-2-methylthiophen-3-yl]-2-(4-fluorobenzenesulfonamido) acetamide]"
,108%,116%,,"Cc1sc(S(=O)(=O)N2CCSCC2)cc1NC(=O)[C@@H](C)NS(=O)(=O)c1ccc(F)cc1 [Compound K386, (2R)-2-(4-Fluorobenzenesulfonamido)-N-[2-methyl-5-(thiomorpholine-4-sulfonyl)thiophen-3-yl]propanamide]"
89%,118%,132%,,"Cc1sc(S(=O)(=O)N2CCSCC2)cc1NC(=O)[C@H](C)NS(=O)(=O)c1ccc(F)cc1 [Compound K389, (2S)-2-(4-Fluorobenzenesulfonamido)-N-[2-methyl-5-(thiomorpholine-4-sulfonyl)thiophen-3-yl]propanamide]"
117%,133%,163%,quite active,"Cc1sc(S(=O)(=O)N2CCSCC2)cc1NC(=O)CNS(=O)(=O)c1ccccc1[N+](=O)[O-] [Compound K391, N-[2-Methyl-5-(thiomorpholine-4-sulfonyl)thiophen-3-yl]-2-(2-nitrobenzenesulfonamido) acetamide]"
,102%,106%,disappointing,"Cc1sc(S(=O)(=O)N2CCSCC2)cc1NC(=O)CNS(=O)(=O)c1cccc([N+](=O)[O-])c1 [Compound K392, N-[2-methyl-5-(thiomorpholine-4-sulfonyl)thiophen-3-yl]-2-(3-nitrobenzenesulfonamido) acetamide]"
71%,74%,130%,,"Cc1sc(S(=O)(=O)N2CCSCC2)cc1NC(=O)[C@H](Cc1ccccc1)NS(=O)(=O)c1ccc(F)cc1 [Compound K396, (2S)-2-(4-Fluorobenzenesulfonamido)-N-[2-methyl-5-(thiomorpholine-4-sulfonyl)thiophen-3-yl]-3-phenylpropanamide]"
112%,105%,130%,Activity was maintained,"O=C(CNS(=O)(=O)c1ccc(F)cc1)Nc1ccc(S(=O)(=O)N2CCSCC2)cc1 [Compound K399, 2-(4-Fluorobenzenesulfonamido)-N-[4-(thiomorpholine-4-sulfonyl)phenyl] acetamide]"
94%,107%,134%,,"Cc1sc(S(=O)(=O)N2CCSCC2)cc1NC(=O)[C@@H](NS(=O)(=O)c1ccc(F)cc1)c1ccccc1 [Compound K409, (2S)-2-(4-Fluorobenzenesulfonamido)-N-[2-methyl-5-(thiomorpholine-4-sulfonyl)thiophen-3-yl]-2-phenylacetamide]"

# The next lines start with the compound.
SMILES,"Phosphatase activity in the Malachite Green Assay, analog concentration 125 μM","Phosphatase activity in the Malachite Green Assay, analog concentration 250 μM","Phosphatase activity in the Malachite Green Assay, analog concentration 500 μM",SHIP1 activator activity in the malachite green assay
"Cc1sc(S(=O)(=O)N2CCCC2)cc1NC(=O)CNS(=O)(=O)c1ccc(F)cc1 [Compound K387, 2-(4-Fluorobenzenesulfonamido)-N-[2-methyl-5-(pyrrolidine-1-sulfonyl)thiophen-3-yl]acetamide]",100%,97%,90%,loss of activity
"Cc1sc(S(=O)(=O)N(C)C)cc1NC(=O)CNS(=O)(=O)c1ccc(F)cc1 [Compound K388, N-[5-(Dimethylsulfamoyl)-2-methylthiophen-3-yl]-2-(4-fluorobenzenesulfonamido) acetamide]",100%,97%,94%,
"Cc1sc(S(=O)(=O)N2CCSCC2)cc1NC(=O)[C@@H](Cc1ccccc1)NS(=O)(=O)c1ccc(F)cc1 [Compound K395, (2R)-2-(4-Fluorobenzenesulfonamido)-N-[2-methyl-5-(thiomorpholine-4-sulfonyl)thiophen-3-yl]-3-phenylpropanamide]",112%,106%,106%,
"O=C(CNS(=O)(=O)c1ccc(F)cc1)Nc1cccc(S(=O)(=O)N2CCSCC2)c1 [Compound K400, 2-(4-Fluorobenzenesulfonamido)-N-[3-(thiomorpholine-4-sulfonyl)phenyl]acetamide]",94%,97%,107%,less active
"O=C(CNS(=O)(=O)c1ccc(F)cc1)Nc1cc(S(=O)(=O)N2CCSCC2)sc1Cl [Compound K401, N-[2-Chloro-5-(thiomorpholine-4-sulfonyl)thiophen-3-yl]-2-(4-fluorobenzenesulfonamido) acetamide]",102%,109%,125%,nearly equipotent as the parent K306 structure
"Cc1sc(S(=O)(=O)N2CCSCC2)cc1NC(=O)CN1C(=O)c2ccccc2S1(=O)=O [Compound K402, N-[2-methyl-5-(thiomorpholine-4-sulfonyl)thiophen-3-yl]-2-(1,1,3-trioxo-2,3-dihydro-1-benzothiazol-2-yl) acetamide]",109%,131%,161%,nearly as potent as 69
